# In patent publication US20170355705A1 (GlaxoSmithKline Intellectual Property (No.2) Limited, priority 2014, published 2017):
# Target: T1, SIRT1 (Homo sapiens, UniProt Q96EB6)
# T1 sequence (Q96EB6 1-747): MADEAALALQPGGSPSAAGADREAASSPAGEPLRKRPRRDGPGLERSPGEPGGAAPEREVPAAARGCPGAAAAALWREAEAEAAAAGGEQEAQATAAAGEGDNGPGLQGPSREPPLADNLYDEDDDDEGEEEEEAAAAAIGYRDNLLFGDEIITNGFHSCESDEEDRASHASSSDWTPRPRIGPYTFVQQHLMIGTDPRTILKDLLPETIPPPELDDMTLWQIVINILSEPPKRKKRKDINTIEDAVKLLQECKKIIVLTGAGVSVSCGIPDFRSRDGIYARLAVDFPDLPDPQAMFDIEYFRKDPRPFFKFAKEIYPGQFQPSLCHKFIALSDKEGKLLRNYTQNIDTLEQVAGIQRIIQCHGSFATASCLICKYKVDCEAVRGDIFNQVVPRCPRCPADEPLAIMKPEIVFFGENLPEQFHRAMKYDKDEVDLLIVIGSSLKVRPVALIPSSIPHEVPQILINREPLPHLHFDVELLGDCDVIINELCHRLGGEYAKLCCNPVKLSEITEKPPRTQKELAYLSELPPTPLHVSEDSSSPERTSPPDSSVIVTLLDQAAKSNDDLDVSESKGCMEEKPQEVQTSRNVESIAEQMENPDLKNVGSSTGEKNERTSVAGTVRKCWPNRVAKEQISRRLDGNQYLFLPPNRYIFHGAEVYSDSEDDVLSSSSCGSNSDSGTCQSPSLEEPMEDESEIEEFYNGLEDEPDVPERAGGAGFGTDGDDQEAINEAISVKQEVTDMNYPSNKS
# Test: Trp mass spectrometry assay of SIRT1 activity (EC1.5, percent maximum activation)
# Assay type: biochemical
# Settings: Trp mass spectrometry assay; for TRP Activity (EC1.5): EC1.5 = concentration giving 150% activation of SIRT1
# Summary of the method: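 N-terminal His-tagged human SIRT1 from E. coli BL21(DE3) was incubated 25 min with a 5TMR-labelled, p53-derived Trp peptide and NAD plus varying compound concentrations, then quenched with formic acid. Mass spectrometry quantified OAADPR or deacetylated peptide versus compound-free control, giving EC1.5 and percent maximum activation.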
# [1] = percent maximum activation of SIRT1
# [2] = 0.5 μM peptide substrate, 120 μM βNAD+, 10 nM SIRT1, 25 minutes at 25° C.
TRP Activity (EC1.5),TRP MAX RESP (percent maximum fold activation) [1],"TRP Activity (EC1.5, concentration of test compound that results in 150% activation of SIRT1) [2]",TRP MAX RESP (percent maximum fold activation) [2],Structure (SMILES)
C (EC1.5>25 μM),B (Fold Activation <150%),,,"Cc1cc(-c2nc3c(cc2Cl)N2CC[C@@H](C2)N3C(=O)Nc2cc(OC[C@@H](O)CO)ncn2)ccn1 [Example 44, (4S)-8-chloro-N-(6-((S)-2,3-dihydroxypropoxy)pyrimidin-4-yl)-7-(2-methylpyridin-4-yl)-3,4-dihydro-1,4-methanopyrido[2,3-b][1,4]diazepine-5(2H)-carboxamide]"
A (EC1.5<1 μM),A (Fold activation ≧150%),,,"Cc1cc(-c2ccc3c(n2)N(C(=O)Nc2ccc4[nH]ncc4c2)[C@H]2CCN3C2)ccn1 [Example 157, (4S)-N-(1H-indazol-5-yl)-7-(2-methylpyridin-4-yl)-3,4-dihydro-1,4-methanopyrido[2,3-b][1,4]diazepine-5(2H)-carboxamide]"
,,B (EC1.5 1-25 μM),A (Fold activation ≧150%),"O=C(Nc1cnccn1)N1c2nc(-c3ccc(OC(F)F)nc3)ccc2N2CC[C@H]1C2 [Example 226, (4S)-7-(6-(difluoromethoxy)pyridin-3-yl)-N-(pyrazin-2-yl)-3,4-dihydro-1,4-methanopyrido[2,3-b][1,4]diazepine-5(2H)-carboxamide]"
B (EC1.5 1-25 μM),A (Fold activation ≧150%),,,"Cc1cc(-c2ccc3c(n2)N(C(=O)Nc2cn(C)nn2)[C@H]2CCN3C2)ccn1 [Example 138, (4S)-N-(1-methyl-1H-1,2,3-triazol-4-yl)-7-(2-methylpyridin-4-yl)-3,4-dihydro-1,4-methanopyrido[2,3-b][1,4]diazepine-5(2H)-carboxamide]"
C (EC1.5>25 μM),B (Fold Activation <150%),,,"O=C(O)c1cc(-c2ccc3c(n2)N(C(=O)Nc2cnccn2)[C@H]2CCN3C2)ccn1 [Example 177, 4-((4S)-5-(pyrazin-2-ylcarbamoyl)-2,3,4,5-tetrahydro-1,4-methanopyrido[2,3-b][1,4]diazepin-7-yl)picolinic acid]"
,,C (EC1.5>25 μM),B (Fold Activation <150%),"CC1CN(c2ccc3c(n2)N(C(=O)Nc2cnccn2)[C@H]2CCN3C2)CCN1 (single isomer, unassigned) [Example 229]"
B (EC1.5 1-25 μM),A (Fold activation ≧150%),,,"Cc1cc(-c2ccc3c(n2)N(C(=O)Nc2ccc4[nH]cnc4n2)[C@H]2CCN3C2)ccn1 [Example 189, (4S)-N-(1H-imidazo[4,5-b]pyridin-5-yl)-7-(2-methylpyridin-4-yl)-3,4-dihydro-1,4-methanopyrido[2,3-b][1,4]diazepine-5(2H)-carboxamide]"
B (EC1.5 1-25 μM),A (Fold activation ≧150%),,,"Cc1cc(-c2nc3c(cc2Cl)N2CC[C@@H](C2)N3C(=O)Nc2cc(OC[C@H](O)CO)ccn2)ccn1 [Example 38, (4S)-8-chloro-N-(4-((R)-2,3-dihydroxypropoxy)pyridin-2-yl)-7-(2-methylpyridin-4-yl)-3,4-dihydro-1,4-methanopyrido[2,3-b][1,4]diazepine-5(2H)-carboxamide]"
A (EC1.5<1 μM),A (Fold activation ≧150%),,,"O=C(Nc1cncc(OC[C@@H](O)CO)c1)N1c2nc(-c3cccc(C(F)(F)F)c3)c(Cl)cc2N2CC[C@H]1C2 [Example 78, (4S)-8-chloro-N-(5-((S)-2,3-dihydroxypropoxy)pyridin-3-yl)-7-(3-(trifluoromethyl)phenyl)-3,4-dihydro-1,4-methanopyrido[2,3-b][1,4]diazepine-5(2H)-carboxamide]"
,,B (EC1.5 1-25 μM),A (Fold activation ≧150%),"Cc1cc(-c2ccc3c(n2)N(C(=O)Nc2nc4scc(C)n4n2)[C@H]2CCN3C2)ccn1 [Example 202, (4S)-7-(2-methylpyridin-4-yl)-N-(6-methylthiazolo[3,2-b][1,2,4]triazol-2-yl)-3,4-dihydro-1,4-methanopyrido[2,3-b][1,4]diazepine-5(2H)-carboxamide]"
B (EC1.5 1-25 μM),A (Fold activation ≧150%),,,"Cc1cc(-c2ccc3c(n2)N(C(=O)Nc2cnccn2)C2CCN3C2)ccn1 (stereo in doubt) [Example 149, (4R)-7-(2-methylpyridin-4-yl)-N-(pyrazin-2-yl)-3,4-dihydro-1,4-methanopyrido[2,3-b][1,4]diazepine-5(2H)-carboxamide]"
,,B (EC1.5 1-25 μM),A (Fold activation ≧150%),"O=C(Nc1cnccn1)N1c2nc(-c3ccc(C(F)(F)F)nc3)ccc2N2CC[C@H]1C2 [Example 208, (4S)-N-(pyrazin-2-yl)-7-(6-(trifluoromethyl)pyridin-3-yl)-3,4-dihydro-1,4-methanopyrido[2,3-b][1,4]diazepine-5(2H)-carboxamide]"
B (EC1.5 1-25 μM),A (Fold activation ≧150%),,,"O=C(Nc1ccnc(OC2CCOCC2)n1)N1c2nc(-c3cccc(C(F)(F)F)c3)c(Cl)cc2N2CC[C@H]1C2 [Example 55, (4S)-8-chloro-N-(2-((tetrahydro-2H-pyran-4-yl)oxy)pyrimidin-4-yl)-7-(3-(trifluoromethyl)phenyl)-3,4-dihydro-1,4-methanopyrido[2,3-b][1,4]diazepine-5(2H)-carboxamide]"
A (EC1.5<1 μM),A (Fold activation ≧150%),,,"O=C(Nc1cnc(OC[C@@H](O)CO)nc1)N1c2nc(-c3cccc(C(F)(F)F)c3)c(Cl)cc2N2CC[C@H]1C2 [Example 80, (4S)-8-chloro-N-(2-((S)-2,3-dihydroxypropoxy)pyrimidin-5-yl)-7-(3-(trifluoromethyl)phenyl)-3,4-dihydro-1,4-methanopyrido[2,3-b][1,4]diazepine-5(2H)-carboxamide]"
A (EC1.5<1 μM),A (Fold activation ≧150%),,,"Cc1cc(-c2ccc3c(n2)N(C(=O)Nc2cnccn2)[C@H]2CCN3C2)cnc1C [Example 171, (4S)-7-(5,6-dimethylpyridin-3-yl)-N-(pyrazin-2-yl)-3,4-dihydro-1,4-methanopyrido[2,3-b][1,4]diazepine-5(2H)-carboxamide]"
,,,A (Fold activation ≧150%),Cc1cc(-c2ccc3c(n2)N(C(=O)Nc2nccc(-c4cnc(C)o4)n2)[C@H]2CCN3C2)ccn1 [Example 353]
A (EC1.5<1 μM),A (Fold activation ≧150%),,,"O=C(Nc1cncc(OC[C@H](O)CO)n1)N1c2nc(-c3cccc(C(F)(F)F)c3)c(Cl)cc2N2CC[C@H]1C2 [Example 65, (4S)-8-chloro-N-(6-((R)-2,3-dihydroxypropoxy)pyrazin-2-yl)-7-(3-(trifluoromethyl)phenyl)-3,4-dihydro-1,4-methanopyrido[2,3-b][1,4]diazepine-5(2H)-carboxamide]"
